Measurements reported in paper PMC4506515, “Structural basis for catalytically restrictive dynamics of a high-energy enzyme state” (Nature Communications, 2015).

Legend:
adenylate kinase (AdK) [1] = target: T1, adenylate kinase (AdK) (Escherichia coli, UniProt P69441); assay: NMR spectra of the ADP-saturated enzyme; type: binding; settings: 30 mM MOPS, 50 mM NaCl, pH 7.0; 25 °C
T1 construct: full-length, no tag mentioned; pEAK-91 vector, AdK promotor, BL21(DE3); Blue Sepharose and size exclusion

adenylate kinase (AdK) [2] = target: T2, adenylate kinase (AdK) (Escherichia coli, UniProt P69441, P177A); assay: isothermal titration calorimetry, single-site fit; type: binding; settings: 30 mM MOPS, 50 mM NaCl, pH 7.0; measured at 15, 25, 35 and 45 °C
T2 construct: full-length, no tag mentioned; pEAK-91 vector, AdK promotor, BL21(DE3); Blue Sepharose and size exclusion

adenylate kinase (AdK) [3] = target: T3, adenylate kinase (AdK) (Escherichia coli, UniProt P69441, Y171W); assay: isothermal titration calorimetry, single-site fit; type: binding
T3 construct: full-length, no tag mentioned; pEAK-91 vector, AdK promotor, BL21(DE3); Blue Sepharose and size exclusion

adenylate kinase (AdK) [4] = target: T1, adenylate kinase (AdK); assay: isothermal titration calorimetry, single-site fit; type: binding; settings: 30 mM MOPS, 50 mM NaCl, pH 7.0; measured at 15, 25, 35 and 45 °C
adenylate kinase (AdK) [5] = target: T1, adenylate kinase (AdK); assay: coupled spectroscopic assay, […] nm (NADH); type: biochemical; settings: 0.3 mM AMP, 2 mM MgCl2, 100 mM Tris, 80 mM KCl, pH 7.5; 15, 25, 35 and 45 °C

T1 sequence (P69441 whole entry): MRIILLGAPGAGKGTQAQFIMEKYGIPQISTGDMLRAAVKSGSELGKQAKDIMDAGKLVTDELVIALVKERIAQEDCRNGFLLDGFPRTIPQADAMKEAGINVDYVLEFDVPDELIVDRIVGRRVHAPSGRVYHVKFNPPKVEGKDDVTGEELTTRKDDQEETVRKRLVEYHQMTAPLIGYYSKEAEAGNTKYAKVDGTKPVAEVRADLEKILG
T3 sequence (P69441 whole entry Y171W): as the sequence (P69441 whole entry) above, with Y171W counted along it
T2 sequence (P69441 whole entry P177A): as the sequence (P69441 whole entry) above, with P177A counted along it

Nc1ncnc2c1ncn2[C@@H]1O[C@H](COP(=O)(O)OP(=O)(O)O)[C@@H](O)[C@H]1O [ADP] was tested, and the “NMR spectra of the ADP-saturated enzyme” value (adenylate kinase (AdK) [1]) was “wild-type AdK in complex with saturating concentrations of the natural substrate ADP”.

Nc1ncnc2c1ncn2[C@@H]1O[C@H](COP(=O)(O)OP(=O)(O)OP(=O)(O)OP(=O)(O)OP(=O)(O)OC[C@H]2O[C@@H](n3cnc4c(N)ncnc43)[C@H](O)[C@@H]2O)[C@@H](O)[C@H]1O [Ap5a, P1,P5-di(adenosine-5′)pentaphosphate] was tested, and the KD (adenylate kinase (AdK) [2]) was “KD values for the wild type, P177A and Y171W variants”, the Kd (adenylate kinase (AdK) [3]) was 250 ± 60 nM and the KD (adenylate kinase (AdK) [4]) was “KD values for the wild type, P177A and Y171W variants”.

With Nc1ncnc2c1ncn2[C@@H]1O[C@H](COP(=O)(O)OP(=O)(O)OP(=O)(O)O)[C@@H](O)[C@H]1O [ATP] the KM (adenylate kinase (AdK) [5]) was “ATP affinity, KM, for the used spectroscopic assay”.
